The subject of one test is WEEV California. The test is described as follows: microbe, parasite or virus in culture. Format: cell-based. The conditions noted are these: Western equine encephalitis virus, Vero 76, 48 h, read-out: WEEV California EC50 nM.
A further test deals with VEEV TC83. The test can be described thus: microbe, parasite or virus in culture. Format: cell-based. The settings on record: Venezuelan equine encephalitis virus, Vero 76, 48 h, read-out: VEEV TC83 EC50 nM.

For `O=c1c2cc([N+](=O)[O-])ccc2nc(C2CCN2)n1-c1ccccc1` (stereo not shown) [Example 27, 2-(azetidin-2-yl)-6-nitro-3-phenylquinazolin-4 (3H)-one], the 50% effective concentration (EC50) (in general, the concentration at which the effect is half-maximal) in the test with WEEV California is above 1000 nM; in the test with VEEV TC83, 501 to 1000 nM.

As to `Cc1cccc(-n2c([C@H]3CCCN3)nc3ccc([N+](=O)[O-])cc3c2=O)c1` [Example 36, (R)-6-nitro-2-(pyrrolidin-2-yl)-3-(m-tolyl)quinazolin-4 (3H)-one], the EC50 is 501 to 1000 nM in the test on WEEV California and 51 to 150 nM with VEEV TC83.

In the case of `COc1ccc(-n2c([C@H]3CCCN3)nc3c(-c4cncc(C#N)c4)cc([N+](=O)[O-])cc3c2=O)cc1F` [Example 94, (R)-3-(3-fluoro-4-methoxyphenyl)-8-(5-cyanopyridin-3-yl)-6-nitro-2-(pyrrolidin-2-yl) quinazolin-4 (3H)-one], the figures for the EC50 in the test with WEEV California and with VEEV TC83 were 51 to 150 nM and 1 to 50 nM, respectively.

Regarding `COc1ccc(-n2c([C@H]3CCCN3)nc3c(-c4cncc(F)c4)cc([N+](=O)[O-])cc3c2=O)cc1F` [Example 93, (R)-3-(3-fluoro-4-methoxyphenyl)-8-(5-fluoropyridin-3-yl)-6-nitro-2-(pyrrolidin-2-yl) quinazolin-4 (3H)-one], the EC50 with WEEV California and in the test on VEEV TC83 was 1 to 50 nM throughout.

As for `COc1ccc(-n2c(-c3ccon3)nc3c(-c4ccc(C)nc4)cc(C#N)cc3c2=O)cc1F` [Example 199, 3-(3-fluoro-4-methoxyphenyl)-2-(isoxazol-3-yl)-8-(6-methylpyridin-3-yl)-4-oxo-3,4-dihydroquinazoline-6-carbonitrile], the EC50 in the test on WEEV California is above 1000 nM; with VEEV TC83, 501 to 1000 nM.

Take `COc1ccc(-n2c([C@@H]3CCCN3C)nc3ccc([N+](=O)[O-])cc3c2=O)cc1` [Example 13, (S)-3-(4-methoxyphenyl)-2-(1-methylpyrrolidin-2-yl)-6-nitroquinazolin-4 (3H)-one]: the EC50 in the test with WEEV California lay within 51 to 150 nM; in the test on VEEV TC83, 1 to 50 nM.

For `COc1ccc(-n2c([C@@H]3CCCN3)nc3c(C)cc([N+](=O)[O-])cc3c2=O)cc1F` [Example 69, (S)-3-(3-fluoro-4-methoxyphenyl)-8-methyl-6-nitro-2-(pyrrolidin-2-yl) quinazolin-4 (3H)-one], the EC50 lay within 51 to 150 nM in the test on WEEV California and 151 to 500 nM with VEEV TC83.

For the compound `O=c1c2cc([N+](=O)[O-])ccc2nc(C2CCCN2)n1-c1ccc(F)cc1` (stereo not shown) [Example 42, 3-(4-fluorophenyl)-6-nitro-2-(pyrrolidin-2-yl)quinazolin-4 (3H)-one], the results for the EC50 in the test on WEEV California and in the test on VEEV TC83 were 151 to 500 nM and 51 to 150 nM, respectively.

Turning to `COc1ccc(-n2c([C@@H]3CCCN3)nc3ccc([N+](=O)[O-])cc3c2=O)cc1` [Example 12, (S)-3-(4-methoxyphenyl)-6-nitro-2-(pyrrolidin-2-yl) quinazolin-4 (3H)-one], the EC50 with WEEV California lay in the range of 151 to 500 nM; in the test on VEEV TC83, 1 to 50 nM.

For `COc1ccc(-n2c(C3CCCN3C3CCOCC3)nc3ccc(F)c(F)c3c2=O)cc1` (stereo in doubt) [Example 29, (S)-5,6-difluoro-3-(4-methoxyphenyl)-2-(1-(tetrahydro-2H-pyran-4-yl)pyrrolidin-2-yl) quinazolin-4 (3H)-one], the EC50 in the test with WEEV California and with VEEV TC83 was above 1000 nM throughout.

For the compound `COc1ccc(-n2c([C@H]3CCCN3)nc3ccc(C#N)c(F)c3c2=O)cc1` [Example 73, (R)-5-fluoro-3-(4-methoxyphenyl)-4-oxo-2-(pyrrolidin-2-yl)-3,4-dihydroquinazoline-6-carbonitrile], the 50% effective concentration (EC50) in the test on WEEV California and in the test on VEEV TC83 was above 1000 nM in each case.

As for `COc1ccc(-n2c([C@H]3CCCN3C)nc3c(-c4ccoc4)cc(C#N)cc3c2=O)cc1F` [Example 115, (R)-3-(3-fluoro-4-methoxyphenyl)-8-(furan-3-yl)-2-(1-methylpyrrolidin-2-yl)-4-oxo-3,4-dihydroquinazoline-6-carbonitrile], the EC50 with WEEV California and in the test on VEEV TC83 was 1 to 50 nM each time.

With `COc1ccc(-n2c([C@H]3C[C@H](F)CN3)nc3c(C)cc(C#N)cc3c2=O)cc1F` [Example 54, 3-(3-fluoro-4-methoxyphenyl)-2-((2R,4S)-4-fluoropyrrolidin-2-yl)-8-methyl-4-oxo-3,4-dihydroquinazoline-6-carbonitrile], the EC50 in the test with WEEV California and with VEEV TC83 was 151 to 500 nM in each case.

Take `COc1ccc(-n2c([C@H]3CCCN3)nc3c(F)cc(C#N)cc3c2=O)cc1` [Example 78, (R)-8-fluoro-3-(4-methoxyphenyl)-4-oxo-2-(pyrrolidin-2-yl)-3,4-dihydroquinazoline-6-carbonitrile]: the EC50 with WEEV California and in the test on VEEV TC83 was 51 to 150 nM in each case.

Regarding `COc1ccc(-n2c([C@H]3CCCN3)nc3cccc([N+](=O)[O-])c3c2=O)cc1` [Example 49, (R)-3-(4-methoxyphenyl)-5-nitro-2-(pyrrolidin-2-yl)quinazolin-4 (3H)-one], the EC50 with WEEV California and with VEEV TC83 was above 1000 nM each time.

In the case of `O=c1c2cc([N+](=O)[O-])ccc2nc([C@H]2CCCN2)n1-c1ccccc1` [Example 2, (R)-6-nitro-3-phenyl-2-(pyrrolidin-2-yl) quinazolin-4 (3H)-one], the values for the EC50 in the test with WEEV California and in the test on VEEV TC83 were 51 to 150 nM and 1 to 50 nM, respectively.

Regarding `COc1ccc(-n2c([C@H]3CCCN3)nc3c(-c4cccnc4)cc([N+](=O)[O-])cc3c2=O)cc1F` [Example 81, (R)-3-(3-fluoro-4-methoxyphenyl)-6-nitro-8-(pyridin-3-yl)-2-(pyrrolidin-2-yl) quinazolin-4 (3H)-one], the EC50 with WEEV California and in the test with VEEV TC83 was 1 to 50 nM each time.

With `Cc1ccc(-c2cc(C#N)cc3c(=O)n(-c4ccc(N5CCOCC5)c(F)c4)c(C4CCCN4)nc23)cn1` (stereo not shown) [Example 146, 3-(3-Fluoro-4-morpholinophenyl)-8-(6-methylpyridin-3-yl)-4-oxo-2-(pyrrolidin-2-yl)-3,4-dihydroquinazoline-6-carbonitrile], the values for the EC50 in the test with WEEV California and with VEEV TC83 were 501 to 1000 nM and 151 to 500 nM, respectively.

Regarding `O=c1c2cc([N+](=O)[O-])ccc2nc(C2CCCN2)n1-c1cccc(Cl)c1` (stereo not shown) [Example 39, 3-(3-chlorophenyl)-6-nitro-2-(pyrrolidin-2-yl) quinazolin-4 (3H)-one], the values for the EC50 in the test on WEEV California and with VEEV TC83 were above 1000 nM and 51 to 150 nM, respectively.

For the compound `COc1ccc(-n2c([C@@H]3CCCN3)nc3c(Br)cc(C#N)cc3c2=O)cc1F` [Example 97, (S)-8-bromo-3-(3-fluoro-4-methoxyphenyl)-4-oxo-2-(pyrrolidin-2-yl)-3,4-dihydroquinazoline-6-carbonitrile], the EC50 in the test on WEEV California and in the test on VEEV TC83 was 1 to 50 nM in each case.

Regarding `COc1c(F)cc(-n2c(C3CCCN3)nc3c(-c4cc(C)nc(C)c4)cc(C#N)cc3c2=O)cc1F` (stereo not shown) [Example 159, 3-(3,5-Difluoro-4-methoxyphenyl)-8-(2,6-dimethylpyridin-4-yl)-4-oxo-2-(pyrrolidin-2-yl)-3,4-dihydroquinazoline-6-carbonitrile], the EC50 in the test on WEEV California and with VEEV TC83 was 51 to 150 nM each time.

Consider `COc1ccc(-n2c([C@H]3CCCCN3)nc3ccc([N+](=O)[O-])cc3c2=O)cc1` [Example 33, (R)-3-(4-methoxyphenyl)-6-nitro-2-(piperidin-2-yl)quinazolin-4 (3H)-one], for which the 50% effective concentration (EC50) in the test with WEEV California and in the test on VEEV TC83 was 151 to 500 nM each time.

For `COc1ccc(-n2c(C3CCCN3)nc3c(-c4ccc(C#N)nc4)cc(C#N)cc3c2=O)cc1F` (stereo not shown) [Example 126, 8-(6-cyanopyridin-3-yl)-3-(3-fluoro-4-methoxyphenyl)-4-oxo-2-(pyrrolidin-2-yl)-3,4-dihydroquinazoline-6-carbonitrile], the EC50 in the test with WEEV California lay within 51 to 150 nM; in the test on VEEV TC83, 1 to 50 nM.

In the case of `COc1ccc(-n2c(C3CCCN3)nc3c(-c4ccc(N5CCN(C)CC5)nc4)cc(C#N)cc3c2=O)cc1F` (stereo not shown) [Example 132, 3-(3-fluoro-4-methoxyphenyl)-8-(6-(4-methylpiperazin-1-yl)pyridin-3-yl)-4-oxo-2-(pyrrolidin-2-yl)-3,4-dihydroquinazoline-6-carbonitrile], the 50% effective concentration (EC50) in the test on WEEV California and in the test with VEEV TC83 was 1 to 50 nM throughout.

Consider `COc1ccc(-n2c([C@H]3CCCN3)nc3cc(F)c(C#N)cc3c2=O)cc1` [Example 34, (R)-7-fluoro-3-(4-methoxyphenyl)-4-oxo-2-(pyrrolidin-2-yl)-3,4-dihydroquinazoline-6-carbonitrile], for which the EC50 with WEEV California and in the test on VEEV TC83 was 51 to 150 nM in each case.

Take `COc1ccc(-n2c([C@H]3CCCN3)nc3c(N4CCOCC4)cc(C#N)cc3c2=O)cc1F` [Example 113, (R)-3-(3-fluoro-4-methoxyphenyl)-8-morpholino-4-oxo-2-(pyrrolidin-2-yl)-3,4-dihydroquinazoline-6-carbonitrile]: the EC50 in the test on WEEV California fell in the range of 51 to 150 nM; in the test with VEEV TC83 it was 1 to 50 nM.

In the case of `COc1ccc(-n2c([C@H]3CCCN3)nc3c(-c4ccc(C(F)(F)F)nc4)cc([N+](=O)[O-])cc3c2=O)cc1F` [Example 91, (R)-3-(3-fluoro-4-methoxyphenyl)-6-nitro-2-(pyrrolidin-2-yl)-8-(6-(trifluoromethyl)pyridin-3-yl) quinazolin-4 (3H)-one], the concentration for a half-maximal effect (EC50) in the test on WEEV California and in the test on VEEV TC83 was 1 to 50 nM each time.

`COc1ccc(-n2c(-c3cnco3)nc3c(-c4ccc(C)nc4)cc(C#N)cc3c2=O)cc1F` [Example 198, 3-(3-fluoro-4-methoxyphenyl)-8-(6-methylpyridin-3-yl)-2-(oxazol-5-yl)-4-oxo-3,4-dihydroquinazoline-6-carbonitrile]: the EC50 in the test with WEEV California and with VEEV TC83 was above 1000 nM each time.

For the compound `COc1ccc(-n2c(C3CCCN3)nc3c(-c4cnc(OC)c(OC)c4)cc(C#N)cc3c2=O)cc1F` (stereo not shown) [Example 135, 8-(5,6-dimethoxypyridin-3-yl)-3-(3-fluoro-4-methoxyphenyl)-4-oxo-2-(pyrrolidin-2-yl)-3,4-dihydroquinazoline-6-carbonitrile], the EC50 with WEEV California and in the test on VEEV TC83 was 1 to 50 nM throughout.

(Values after patent publication US20220348558A1, “INHIBITORS OF ENCEPHALITIC ALPHAVIRUSES” (priority 2019, published 2022).)
